Data taken from US9581586B2, “Approach to asthma inhaler compliance using breath measurement of tetrafluoroethane” (The Regents of the University of California, priority 2014, dated 2017).
Like-named read-outs stand apart in the source and are kept apart here. Blank lines part the entries; values can stand above or below the compound they belong to.

Key:
[1] = metabolite of HFA-134a, only in some urine samples at trace levels; cited from earlier work
[2] = Exhaled breath HFA-134a levels after asthma inhaler administration (GC with MSD); type: in vivo, human; conditions: n=1, Flovent HFA one puff per day for nine days, last ICS approximately 24 hr before sampling
[3] = in vivo; cited from earlier work
[4] = Exhaled breath HFA-134a levels after asthma inhaler administration (GC with MSD); type: in vivo, human
Experimental: Study participants were randomly assigned to inhaled corticosteroid (ICS, Flovent HFA, 220 mcg, n=5) or short acting bronchodilator (Albuterol, Proventil HFA, n=5). Baseline exhaled breath sampling and standard lung function test were performed prior to the medication dispersion. After baseline measurements, the participants inhaled two puffs of either Flovent HFA (Glaxo Smith Kline) or Proventil HFA (Merck & CO., INC) using a spacer (AeroChamberPlus Flow-Vu, Monaghan). Breath sampling and lung function test were performed immediately after inhalation (<5 min), and at 2, 4, 6, 8, 24, and 48 hours post administration (see FIG. 3).
Exhaled breath samples were collected in evacuated electro-polished stainless steel canisters (volume=1.9 L). The analytic system used in this study is similar to the system described in Colman et al., 2001 (18). Briefly, 790 mL of the collected air sample is pre-concentrated in a stainless steel loop filled with glass beads and submerged in liquid nitrogen to remove the nitrogen, oxygen and argon present in the sample. The sample is re-vaporized using hot water (at approximately 80° C.) and split into five different column/detector combinations housed in three gas chromatographs (GCs) using UHP helium as the carrier gas: (1) DB-1 column (J&W; 60 m, 0.32 mm I.D., 1 μm film thickness) output to a flame ionization detector (FID); (2) DB-5 column (J&W; 30 m, 0.25 mm I.D., 1 vim film thickness) connected in series to a RESTEK 1701 column (5 m, 0.25 mm I.D., 0.5 μm film thickness) and output to an electron capture detector (ECD); (3) RESTEK 1701 column (60 m, 0.25 mm I.D., 0.50 μm film thickness) output to an ECD; (4) PLOT column (J&W GS-Alumina; 30 m, 0.53 mm I.D.) connected in series to a DB-1 column (J&W; 5 m, 0.53 mm I.D., 1.5 μm film thickness) and output to an FID; (5) DB-5 ms column (J&W; 60 m, 0.25 mm I.D., 0.5 μm film thickness) output to a quadrupole mass spectrometer detector (MSD, HP 5973). The MSD is set to operate in selected ion monitoring (SIM) mode with one ion chosen to quantify each compound in order to achieve the maximum selectivity and to avoid potential interferences. All gas chromatographs and detectors used in this study are manufactured by Hewlett Packard. The analytical system allows for the identification and quantification of different classes of volatile organic compounds (VOCs). […] Simultaneously, room air samples were also collected in the same location to quantify corresponding ambient levels of HFA-134a.

[5] = Three compartment pharmacokinetic analysis of HFA elimination in breath after Flovent HFA; type: in vivo, human; conditions: for half-life: human, exhaled breath, inhaled
Experimental: 24 hr, 36 hr, and 48 hr—post Flovent HFA administration (red and blue open circle). All sample collections were held open space. […] The calculated half-lives are 0.97, 20.7, and 442 minutes for subject #1 and 0.92, 27.6, and 355 minutes for subject #2.
As further disclosed in FIG. 5, the inventors re-defined the experiment and have performed a compartmental pharmacokinetic analysis of HFA elimination kinetics using HFA at 5 min, 7 min, 10 min, 15 min, 30 min, 1 hr, 2 hr, 3 hr, 4 hr, 6 hr, 8 hr, 12 hr. 24 hr, 36 hr, and 48 hr—post Flovent HFA administration. The HFA elimination could be modeled using three compartment pharmacokinetic analysis (Eq1). […] The elimination rate constant in each compartment, L1, L2, and L3, respectively are −0.1970, −0.0183, and −0.0013 for subject #1 and −0.1720, −0.0142, and −0.0018 for subject #2. The corresponding half-lives are 0.97, 20.7, and 442 minutes for subject #1 and 0.92, 27.6, and 355 minutes for subject #2.

[6] = 500 ppm of HFA-134a for two hours; cited from earlier work
[7] = Albuterol subject #3 (Proventil HFA)

SMILES: O=C(O)C(F)(F)F [trifluoroacetic acid]
- Trifluoroacetic acid detected in urine samples [1]: less than 0.0005 % of the administered dose

- Baseline breath HFA level of symptomatic asthma subject on ICS [2]: 710 ppt
- Exhaled HFA-134a levels at the 2-hr time point ([4]; 2 hr post inhaler administration, range over subjects): 28000-266000 pptv
- HFA concentration in breath at 48 hr post typical asthma inhaler administration ([4]; 48 hr post): still detectable
- Breath HFA-134a 48 hr post medication [4, 7]: 224 pptv
- Breath HFA-134a right after medication [4, 7]: 6.2 ppmv
- Breath HFA-134a at 48 hour time point ([4]; ICS subject #3 (Flovent HFA)): 287 pptv
- Breath HFA-134a right after drug administration ([4]; ICS subject #3 (Flovent HFA)): 179 ppmv
- Breath HFA-134a at 48 hour time point ([4]; ICS subject #4 (Flovent HFA)): 351 pptv
- Breath HFA-134a right after drug administration ([4]; ICS subject #4 (Flovent HFA)): 48 ppmv
- Time HFA can be measured in exhaled breath after a typical single inhalation ([4]; down to parts-per-trillion levels): at least 48 hours
- HFA-134a breath levels immediately after inhalation ([4]; healthy controls, Flovent HFA or Proventil HFA, immediately after inhalation): 300×10^6 pptv
- Time HFA is detectable above ambient levels following an inhalation ([4]; healthy participants): up to 24 hours
- Exhaled breath HFA-134a levels right after inhalation (range over subjects) ([4]; healthy participants, two puffs of asthma inhaler, right after inhalation): 3-300 ppmv
- Mean (SD) levels of HFA-134a in exhaled breath at 48-hr post inhaler administration ([4]; seven of ten healthy participants, 48 hr post): 260 (138) pptv
- Breath HFA-134a levels at 48 hours post inhaler administration ([4]; similar to room HFA-134a levels, also at baseline): approximately 200 pptv
- half-life ([5]; subject #1, read-out: Half-life corresponding to L1): 0.97 min
- half-life ([5]; subject #1, read-out: Half-life corresponding to L2): 20.7 min
- half-life ([5]; subject #1, read-out: Half-life corresponding to L3): 442 min
- half-life ([5]; subject #2, read-out: Half-life corresponding to L1): 0.92 min
- half-life ([5]; subject #2, read-out: Half-life corresponding to L2): 27.6 min
- half-life ([5]; subject #2, read-out: Half-life corresponding to L3): 355 min
- Elimination rate constant L1 ([5]; subject #1, post Flovent HFA): −0.1970 reciprocal minutes
- Elimination rate constant L2 ([5]; subject #1, post Flovent HFA): −0.0183 reciprocal minutes
- Elimination rate constant L3 ([5]; subject #1, post Flovent HFA): −0.0013 reciprocal minutes
- Elimination rate constant L1 ([5]; subject #2, post Flovent HFA): −0.1720 reciprocal minutes
- Elimination rate constant L2 ([5]; subject #2, post Flovent HFA): −0.0142 reciprocal minutes
- Elimination rate constant L3 ([5]; subject #2, post Flovent HFA): −0.0018 reciprocal minutes
SMILES: FCC(F)(F)F [HFA-134a, 1,1,1,2-tetrafluoroethane]
- HFA-134a levels in blood samples [3]: below 10 % of the initially administered concentration
- Decrease of exhaled breath HFA-134a compared with HFA-134a in plasma when exposure stopped [6]: almost an order of magnitude faster
- Exhaled breath HFA-134a the day after the exposure [6]: not-detectable
